According to patent publication US20180235993A1 (priority 2000, published 2018):
Read-outs that look alike come from different tables or passages of the source.

Legend:
HepG2 cells [1] = test: Mitochondria toxicity assay (L-lactic acid assay); type: cell-based; details: Conc. 10 μM, 4 day drug exposure
Protocol: HepG2 cells were cultured in 12-well plates as described above and exposed to various concentrations of drugs as taught by Pan-Zhou X-R, Cui L, Zhou X-J, Sommadossi J-P, Darley-Usmer V M. “Differential effects of antiretroviral nucleoside analogs on mitochondrial function in HepG2 cells” Antimicrob Agents Chemother 2000; 44:496-503. Lactic acid levels in the culture medium after 4 day drug exposure was measured using a Boehringer lactic acid assay kit. Lactic acid levels were normalized by cell number as measured by hemocytometer count.

MDBK = test: Cytotoxicity assay (sulforhodamine B, CC50), MDBK; type: cell-based; details: MDBK cells, 4 days incubation
Protocol: (§1) Cells were seeded at a rate of between 5×10^3 and 5×10^4/well into 96-well plates in growth medium overnight at 37° C. in a humidified CO2 (5%) atmosphere. New growth medium containing serial dilutions of the drugs was then added. After incubation for 4 days, cultures were fixed in 50% TCA and stained with sulforhodamineB. The optical density was read at 550 nm. The cytotoxic concentration was expressed as the concentration required to reduce the cell number by 50% (CC50).

Human Hepatoma = test: Cytotoxicity assay (sulforhodamine B, CC50), Human Hepatoma; type: cell-based; details: 4 days incubation
Protocol: as §1

HepG2 cells [2] = test: Phosphorylation assay of nucleoside to active triphosphate; type: in vitro ADME; details: 10 μM [3H] labeled compound
Protocol: To determine the cellular metabolism of the compounds, HepG2 cells were obtained from the American Type Culture Collection (Rockville, Md.), and were grown in 225 cm^2 tissue culture flasks in minimal essential medium supplemented with non-essential amino acids, 1% penicillin-streptomycin. The medium was renewed every three days, and the cells were subcultured once a week. After detachment of the adherent monolayer with a 10 minute exposure to 30 mL of trypsin-EDTA and three consecutive washes with medium, confluent HepG2 cells were seeded at a density of 2.5×10^6 cells per well in a 6-well plate and exposed to 10 μM of [^3H] labeled active compound (500 dpm/pmol) for the specified time periods. The cells were maintained at 37° C. under a 5% CO2 atmosphere. At the selected time points, the cells were washed three times with ice-cold phosphate-buffered saline (PBS). Intracellular active compound and its respective metabolites were extracted by incubating the cell pellet overnight at −20° C. with 60% methanol followed by extraction with an additional 20 μL of cold methanol for one hour in an ice bath. The extracts were then combined, dried under gentle filtered air flow and stored at −20° C. until HPLC analysis.

BVDV (strain NADL) = test: Cell Protection Assay (CPA); type: cell-based, Bovine Viral Diarrhea virus
Protocol: The assay was performed essentially as described by Baginski, S. G.; Pevear, D. C.; Seipel, M.; Sun, S. C. C.; Benetatos, C. A.; Chunduru, S. K.; Rice, C. M. and M. S. Collett “Mechanism of action of a pestivirus antiviral compound” PNAS USA 2000, 97(14), 7981-7986. MDBK cells (ATCC) were seeded onto 96-well culture plates (4,000 cells per well) 24 hours before use. After infection with BVDV (strain NADL, ATCC) at a multiplicity of infection (MOI) of 0.02 plaque forming units (PFU) per cell, serial dilutions of test compounds were added to both infected and uninfected cells in a final concentration of 0.5% DMSO in growth medium. Each dilution was tested in quadruplicate. Cell densities and virus inocula were adjusted to ensure continuous cell growth throughout the experiment and to achieve more than 90% virus-induced cell destruction in the untreated controls after four days post-infection. After four days, plates were fixed with 50% TCA and stained with sulforhodamine B. The optical density of the wells was read in a microplate reader at 550 nm. The 50% effective concentration (EC50) values were defined as the compound concentration that achieved 50% reduction of cytopathic effect of the virus. FIGS. 4 and 5 provide a graphical illustration of the methodology used to arrive at the 50% effective concentration (EC50) values for β-D-2′-CH3-riboG and ribavirin. FIG. 6 compares the results of the CPA for β-D-2′-CH3-riboG, β-D-2′-CH3-riboC, riboU, β-D-2′-CH3-riboA and ribavirin

[3] = tested on: Human bone marrow cells (BFU-E); test: Human bone marrow toxicity, BFU-E clonogenic assay; type: cell-based; details: human bone marrow colony formation, 14 to 18 days
Excerpt: (§2) Human bone marrow cells were collected from normal healthy volunteers and the mononuclear population was separated by Ficoll-Hypaque gradient centrifugation as described previously by Sommadossi J-P, Carlisle R. “Toxicity of 3′-azido-3′-deoxythymidine and 9-(1,3-dihydroxy-2-propoxymethyl)guanine for normal human hematopoietic progenitor cells in vitro” Antimicrobial Agents and Chemotherapy 1987; 31:452-454; and Sommadossi J-P, Schinazi R F, Chu C K, Xie M-Y. “Comparison of cytotoxicity of the (−)- and (+)-enantiomer of 2′,3′-dideoxy-3′-thiacytidine in normal human bone marrow progenitor cells” Biochemical Pharmacology 1992; 44:1921-1925. The culture assays for CFU-GM and BFU-E were performed using a bilayer soft agar or methylcellulose method. Drugs were diluted in tissue culture medium and filtered. After 14 to 18 days at 37° C. in a humidified atmosphere of 5% CO2 in air, colonies of greater than 50 cells were counted using an inverted microscope. The results in Table 4 are presented as the percent inhibition of colony formation in the presence of drug compared to solvent control cultures.

BVDV (NADL strain) = test: Yield Reduction Assay; type: cell-based, Bovine Viral Diarrhea virus
Protocol: The assay was performed as described by Baginski, S. G.; Pevear, D. C.; Seipel, M.; Sun, S. C. C.; Benetatos, C. A.; Chunduru, S. K.; Rice, C. M. and M. S. Collett “Mechanism of action of a pestivirus antiviral compound” PNAS USA 2000, 97(14), 7981-7986, with minor modifications. Briefly, MDBK cells were seeded onto 24-well plates (2×10^5 cells per well) 24 hours before infection with BVDV (NADL strain) at a multiplicity of infection (MOI) of 0.1 PFU per cell. Serial dilutions of test compounds were added to cells in a final concentration of 0.5% DMSO in growth medium. Each dilution was tested in triplicate. After three days, cell cultures (cell monolayers and supernatants) were lysed by three freeze-thaw cycles, and virus yield was quantified by plaque assay. Briefly, MDBK cells were seeded onto 6-well plates (5×10^5 cells per well) 24 h before use. Cells were inoculated with 0.2 mL of test lysates for 1 hour, washed and overlaid with 0.5% agarose in growth medium. After 3 days, cell monolayers were fixed with 3.5% formaldehyde and stained with 1% crystal violet (w/v in 50% ethanol) to visualize plaques. FIG. 9 is a graphical illustration of the results from the Yield Reduction Assay. FIG. 8 is an image of BVDV yield reduction in the presence of increasing concentrations of β-D-2′-CH3-riboC.

YFV-17D = test: microbe, parasite or virus in culture; type: cell-based, Yellow fever virus vaccine strain 17D; details: Table 12; reduce the plaque number by 50%; YFV-BHK; read-out: YFV EC50
[4] = tested on: Human bone marrow cells (CFU-GM); test: Human bone marrow toxicity, CFU-GM clonogenic assay; type: cell-based; details: human bone marrow colony formation, 14 to 18 days; read-out: IC50 CFU-GM
Excerpt: as §2

BVDV = test: Plaque Reduction Assay; type: cell-based, Bovine Viral Diarrhea virus
Protocol: For each compound the effective concentration was determined in duplicate 24-well plates by plaque reduction assays. Cell monolayers were infected with 100 PFU/well of virus. Then, serial dilutions of test compounds in MEM supplemented with 2% inactivated serum and 0.75% of methyl cellulose were added to the monolayers. Cultures were further incubated at 37° C. for 3 days, then fixed with 50% ethanol and 0.8% Crystal Violet, washed and air-dried. FIG. 7 is a graphical illustration of the results from the Plaque Reduction Assay. FIG. 8 is an image of BVDV plaque formation in the presence of increasing concentrations of β-D-2′-CH3-riboU.

[5] = tested on: Bovine Viral Diarrhea virus (BVDV); test: microbe, parasite or virus in culture; type: cell-based; details: read-out: BVDV EC50
[6] = HepG2 cells, read-out: CC50 HepG2
[7] = Huh7 cells, read-out: CC50 Huh7
[8] = read-out: Cell Protection (EC50)

SMILES: O=c1[nH]c(=O)n([C@@H]2O[C@H](CO)[C@@H](O)[C@@H]2F)cc1I [FIAU, reference compound]
- lactate (HepG2 cells [1]): 3.73 mg/10^6 cell
- lactate % of Control (HepG2 cells [1]): 170.4%

SMILES: CC1(O)[C@@H](O)[C@@H](CO)O[C@H]1n1cnc2c(N)ncnc21 (stereo partly drawn) [β-D-2'-CH3-riboA]
- CC50 (MDBK): 20 µM
- CC50 (Human Hepatoma; [6]): 50 to 60 µM
- CC50 (Human Hepatoma; [7]): 40 µM

SMILES: C[C@@]1(O)[C@H](O)[C@@H](CO)O[C@H]1n1ccc(N)nc1=O [β-D-2'-CH3-riboC]
- CC50 (MDBK): 100 µM
- CC50 (Human Hepatoma; [6]): 150 µM
- CC50 (Human Hepatoma; [7]): > 250 µM

SMILES: CC1(O)[C@@H](O)[C@@H](CO)O[C@H]1n1cnc2c(=O)[nH]c(N)nc21 (stereo partly drawn) [β-D-2'-CH3-riboG]
- CC50 (MDBK): 100 µM
- CC50 (Human Hepatoma; [6]): > 250 µM
- CC50 (Human Hepatoma; [7]): > 250 µM

SMILES: C[C@@]1(O)[C@H](O)[C@@H](CO)O[C@H]1n1ccc(=O)[nH]c1=O [β-D-2'-CH3-riboU]
- CC50 (MDBK): > 250 µM
- CC50 (Human Hepatoma; [6]): > 250 µM
- CC50 (Human Hepatoma; [7]): > 250 µM

SMILES: C[C@@]1(O)[C@H](O)[C@@H](COP(=O)(O)OP(=O)(O)OP(=O)(O)O)O[C@H]1n1cnc2c(N)ncnc21 [β-D-2′-CH3-riboA-TP]
- intracellular triphosphate level (HepG2 cells [2]; 2 h): 33.1 pmol/million cells
- intracellular triphosphate level (HepG2 cells [2]; 4 h): 67.7 pmol/million cells
- intracellular triphosphate level (HepG2 cells [2]; 8 h): 147 pmol/million cells
- intracellular triphosphate level (HepG2 cells [2]; 24 h): 427 pmol/million cells
- intracellular triphosphate level (HepG2 cells [2]; 30 h): 456 pmol/million cells
- intracellular triphosphate level (HepG2 cells [2]; 48 h): 288 pmol/million cells

SMILES: C[C@@]1(O)[C@H](O)[C@@H](COP(=O)(O)OP(=O)(O)OP(=O)(O)O)O[C@H]1n1ccc(N)nc1=O [β-D-2′-CH3-riboC-TP]
- intracellular triphosphate level (HepG2 cells [2]; 2 h): 2.24 pmol/million cells
- intracellular triphosphate level (HepG2 cells [2]; 4 h): 3.99 pmol/million cells
- intracellular triphosphate level (HepG2 cells [2]; 8 h): 9.76 pmol/million cells
- intracellular triphosphate level (HepG2 cells [2]; 24 h): 34.9 pmol/million cells
- intracellular triphosphate level (HepG2 cells [2]; 30 h): 36.2 pmol/million cells
- intracellular triphosphate level (HepG2 cells [2]; 48 h): 56.4 pmol/million cells

SMILES: C[C@@]1(O)[C@H](O)[C@@H](COP(=O)(O)OP(=O)(O)OP(=O)(O)O)O[C@H]1n1cnc2c(=O)[nH]c(N)nc21 [β-D-2′-CH3-riboG-TP]
- intracellular triphosphate level (HepG2 cells [2]; 8 h): 2.85 pmol/million cells
- intracellular triphosphate level (HepG2 cells [2]; 24 h): 0.91 pmol/million cells
- intracellular triphosphate level (HepG2 cells [2]; 30 h): 3.22 pmol/million cells
- intracellular triphosphate level (HepG2 cells [2]; 48 h): 6.26 pmol/million cells

SMILES: C[C@@]1(O)[C@H](O)[C@@H](CO)O[C@H]1n1cnc2c(=O)[nH]cnc21 [β-D-2′-CH3-riboI]
- EC50 (BVDV (strain NADL); [8]): 45 µM

SMILES: Cc1cn([C@@H]2O[C@H](CO)[C@@H](O)[C@@]2(C)O)c(=O)[nH]c1=O [β-D-2′-CH3-riboT]
- EC50 (BVDV (strain NADL); [8]): > 250 µM

SMILES: C[C@@]1(O)[C@H](O)[C@@H](COP(=O)(O)OP(=O)(O)OP(=O)(O)O)O[C@H]1n1ccc(=O)[nH]c1=O [β-D-2′-CH3-riboU-TP]
- intracellular triphosphate level (HepG2 cells [2]; 2 h): 0.40 pmol/million cells
- intracellular triphosphate level (HepG2 cells [2]; 4 h): 1.21 pmol/million cells
- intracellular triphosphate level (HepG2 cells [2]; 8 h): 1.57 pmol/million cells
- intracellular triphosphate level (HepG2 cells [2]; 24 h): 6.39 pmol/million cells
- intracellular triphosphate level (HepG2 cells [2]; 30 h): 7.18 pmol/million cells
- intracellular triphosphate level (HepG2 cells [2]; 48 h): 9.42 pmol/million cells

SMILES: C[C@@]1(O)[C@H](O)[C@@H](CO)O[C@H]1n1ccc(=O)[nH]c1=O [β-D-2′-CH3-riboU]
- IC50 [3]: > 100 µM
- Conc. for 6-log Reduction (BVDV (NADL strain)): 120 μM
- EC90 (BVDV (NADL strain)): 24 µM
- Yield Reduction 6 log10 reduction (μM) (BVDV (NADL strain)): 120 μM
- EC50 (BVDV (strain NADL); [8]): 20 µM
- EC50 (BVDV (strain NADL); read-out: EC50): 20 µM
- CC50 (MDBK cells): > 250 µM
- EC50 (YFV-17D): 33 µM
- IC50 [4]: > 100 µM
- EC90 (BVDV; read-out: EC90): < 81 µM
- EC90 (BVDV; read-out: Plaque Reduction (EC90)): < 81 µM
- EC50 [5]: 20 µM
- CC50 (various cell systems): > 100 µM
- CC50 (various cell systems; read-out: YFV CC50, Table 12, reduce the viability of cells by 50%, YFV-BHK system): > 100 µM
